Data taken from patent US10669283B2, “Compound and pharmacologically acceptable salt thereof” (MEIJI SEIKA PHARMA CO., LTD., priority 2016, dated 2020).
pIC50: −log10 of the molar value. Like-named read-outs stand apart in the source and are kept apart here.

How the values were obtained:
PDE4 = PDE4 inhibition, scintillation proximity assay (SPA); format: biochemical
In short: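 Scintillation proximity read-out: [2,8-3H]-cAMP hydrolysis by PDE4 ran 120 min at room temperature in Tris-HCl pH 7.4 buffer with 8.3 mM MgCl2, 1.7 mM EGTA and 3 mg/mL BSA. Bead-bound product (YSi-SPA with ZnSO4, 15 min) counted; blank lacks enzyme, control has DMSO only.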

[1] = Hepatic metabolic stability (rat liver microsome method); format: in vitro ADME; settings: rat liver microsomes 0.5 mg/mL, test substance 1 μM, NADPH 1 mM, 37° C., 30 minutes
Method: Metabolic stability in rat liver microsomes was evaluated by the following method. In 100 mM of potassium phosphate buffer solution (pH 7.4), liver microsomes (concentration at reaction: 0.5 mg/mL) and the test substance (concentration at reaction: 1 μM) were preincubated at 37° C. Five minutes later, 100 mM of potassium phosphate buffer (pH 7.4) solution of NADPH (concentration at reaction: 1 mM) was mixed thereto to start the reaction. After a predetermined time passed, acetonitrile was mixed to the reaction mixture to stop the reaction. Here, the reaction time was 0 and 30 minutes, and drug concentration measurement was performed for each time period using LC-MS. The % remaining value of the test compound was calculated from the value for 0 minutes and the value for 30 minutes, using the calculation formula below: % Remaining=(Value for 30 Minutes/Value for 0 Minutes)×100
The results of measuring the rat liver microsome metabolic Stability (% remaining for 30-minute reaction) for the test compound by the above method were evaluated in accordance with the following evaluated basis; A: a % remaining rate of 75% or more, B: 60% or more and less than 75%, C: 45% or more and less than 60%, and D: less than 45%.

[2] = scintillation proximity assay, class symbols, read-out: PDE4 Inhibitory Activity
[3] = scintillation proximity assay (SPA), evaluated as classes A, B, C, read-out: PDE4 Inhibitory Activity (concentration for the inhibition rate of 50%)

Row | Structure (SMILES) | pIC50 (PDE4; [2]) | Residual ratio (% remaining for 30-minute reaction) [1] | pIC50 (PDE4; [3])
1 | CC(O)(CO)C(F)(F)Oc1ccc(-c2nccs2)c2oc(N3CC4CC(C3)N4)nc12 (racemic) [Example 326, 3-((2-(3,6-Diazabicyclo[3.1.1]heptan-3-yl)-7-(thiazol-2-yl)benzo[d]oxazol-4-yl)oxy)-3,3-difluoro-2-methylpropane-1,2-diol] | > 7.00 | A (a % remaining rate of 75% or more) | 
2 | CC(O)C(F)(F)Oc1ccc(-c2nccs2)c2oc(N3CC4CC(C3)N4)nc12 (single isomer, unassigned) [Example 251, 1-((2-(3,6-Diazabicyclo[3.1.1]heptan-3-yl)-7-(thiazol-2-yl)benzo[d]oxazol-4-yl)oxy)-1,1-difluoropropan-2-ol] |  | A (a % remaining rate of 75% or more) | > 7.00
3 | CC(O)C(F)(F)Oc1ccc(-c2nccs2)c2oc(N3CC4CC(C3)N4)nc12 (single isomer, unassigned) [Example 252, 1-((2-(3,6-Diazabicyclo[3.1.1]heptan-3-yl)-7-(thiazol-2-yl)benzo[d]oxazol-4-yl)oxy)-1,1-difluoropropan-2-ol] |  | A (a % remaining rate of 75% or more) | > 7.00
4 | CC(O)(CO)C(F)(F)Oc1ccc(-c2nccs2)c2oc(N3CC4CC(C3)N4)nc12 (single isomer, unassigned) [Example 364, 3-((2-(3,6-diazabicyclo [3.1.1]heptan-3-yl)-7-(thiazol-2-yl)benzo[d]oxazol-4-yl)oxy)-3,3-difluoro-2-methylpropane-1,2-diol] | > 7.00 | A (a % remaining rate of 75% or more) | 
5 | CC(O)(CO)C(F)(F)Oc1ccc(-c2nccs2)c2oc(N3CC4CC(C3)N4)nc12 (single isomer, unassigned) [Example 365, 3-((2-(3,6-diazabicyclo [3.1.1]heptan-3-yl)-7-(thiazol-2-yl)benzo[d]oxazol-4-yl)oxy)-3,3-difluoro-2-methylpropane-1,2-diol] | > 7.00 | A (a % remaining rate of 75% or more) | 
6 | CC(O)C(F)(F)Oc1ccc(-c2nccs2)c2oc(N3CC4CC(C3)N4O)nc12 (single isomer, unassigned) [Example 372, 3-(4-(1,1-difluoro-2-hydroxypropoxy)-7-(thiazol-2-yl)benzo [d]oxazol-2-yl)-3,6-diazabicyclo[3.1.1] heptan-6-ol] | > 7.00 | B (60% or more and less than 75%) | 
7 | CC(O)C(F)(F)Oc1ccc(-c2nccs2)c2oc(N3CC4CC(C3)N4O)nc12 (single isomer, unassigned) [Example 373, 3-(4-(1,1-difluoro-2-hydroxypropoxy)-7-(thiazol-2-yl)benzo [d]oxazol-2-yl)-3,6-diazabicyclo[3.1.1] heptan-6-ol] | > 7.00 | B (60% or more and less than 75%) | 
8 | FC(F)(F)Oc1c(Cl)cc(-c2nccs2)c2oc(N3CC4CC(C3)N4)nc12 [Example 3, 2-(3,6-Diazabicyclo[3.1.1]heptan-3-yl)-5-chloro-7-(thiazol-2-yl)-4-(trifluoromethoxy)benzo[d]oxazole] |  | B (60% or more and less than 75%) | > 7.00
9 | FC(F)(F)Oc1c(Cl)cc(-n2cccn2)c2oc(N3CC4CCC(C3)N4)nc12 [Example 5, 2-(3,8-Diazabicyclo[3.2.1]octan-3-yl)-5-chloro-7-(1H-pyrazol-1-yl)-4-(trifluoromethoxy)benzo[d]oxazole] |  | B (60% or more and less than 75%) | > 7.00
10 | OC(c1ccc(-c2nccs2)c2oc(N3CC4CCC(C3)N4O)nc12)C(F)(F)F (stereo not shown) [Example 379, 3-(7-(thiazol-2-yl)-4-(2,2,2-trifluoro-1-hydroxyethyl)benzo[d]oxazol-2-yl)-3,8-diaza-bicyclo[3.2.1] octan-8-ol] | > 7.00 |  | 
11 | ON1C2CC1CN(c1nc3c(OC(F)(F)F)ccc(-c4nccs4)c3o1)C2 [Example 380, 3-(7-(thiazol-2-yl)-4-(trifluoro-methoxy)benzo[d]oxazol-2-yl)-3,6-diazabicyclo [3.1.1]heptan-6-ol] | > 7.00 |  | 
12 | CC(C)(O)c1cc(-c2nccs2)c2oc(N3CC4CCC(C3)N4O)nc2c1C(F)(F)F [Example 381, 3-(5-(2-hydroxy-propan-2-yl)-7-(thiazol-2-yl)-4-(trifluoromethyl)benzo[d]oxazol-2-yl)-3,8-diaza-bicyclo[3.2.1] octan-8-ol] | < 6.00 |  | 
13 | CC(O)c1cc(-c2nccs2)c2oc(N3CC4CCC(C3)N4O)nc2c1OC(F)(F)F (stereo not shown) [Example 383, 3-(5-(1-hydroxy-ethyl)-7-(thiazol-2-yl)-4-(trifluoro-methoxy)benzo [d]oxazol-2-yl)-3,8-diazabicyclo[3.2.1] octan-8-ol] | < 6.00 |  | 
14 | CC(O)c1cc(-c2nccs2)c2oc(N3CC4CCC(C3)N4O)nc2c1C(F)(F)F (stereo not shown) [Example 384, 3-(5-(1-hydroxy-ethyl)-7-(thiazol-2-yl)-4-(trifluoro-methyl)benzo[d]oxazol-2-yl)-3,8-diazabicyclo[3.2.1] octan-8-ol] | < 6.00 |  | 
15 | CNS(=O)(=O)c1ccc(-c2nccs2)c2oc(N3CC4CC(C3)N4)nc12 [Example 386, 2-(3,6-diazabicyclo[3.1.1]heptan-3-yl)-N-methyl-7-(thiazol-2-yl)benzo[d] oxazole-4-sulfonamide] | > 7.00 |  | 
16 | CN(C)S(=O)(=O)c1ccc(-c2nccs2)c2oc(N3CC4CC(C3)N4)nc12 [Example 388, 2-(3,6-diazabicyclo[3.1.1]heptan-3-yl)-N,N-dimethyl-7-(thiazol-2-yl)benzo [d]oxazole-4-sulfonamide] | > 7.00 |  | 
17 | CN(CCO)S(=O)(=O)c1ccc(-c2nccs2)c2oc(N3CC4CC(C3)N4)nc12 [Example 389, 2-(3,6-diazabicyclo[3.1.1]heptan-3-yl)-N-(2-hydroxyethyl)-N-methyl-7-(thiazol-2-yl)benzo[d] oxazole-4-sulfonamide] | > 7.00 |  | 
18 | O=S(=O)(c1ccc(-c2nccs2)c2oc(N3CC4CC(C3)N4)nc12)N1CCCC1 [Example 390, 2-(3,6-diazabicyclo[3.1.1]heptan-3-yl)-4-(pyrrolidin-1-yl-sulfonyl)-7-(thiazol-2-yl)benzo [d]oxazole] | > 7.00 |  | 
19 | COC(C)(C)C(F)(F)Oc1ccc(-c2nccs2)c2oc(N3CC4CC(C3)N4)nc12 [Example 393, 2-(3,6-diazabicyclo[3.1.1]heptan-3-yl)-4-(1,1-difluoro-2-methoxy-2-methylpropoxy)-7-(thiazol-2-yl) benzo[d]oxazole] | > 7.00 |  | 
20 | NS(=O)(=O)c1ccc(-c2nccs2)c2oc(N3CC4CC(C3)N4)nc12 [Example 396, 2-(3,6-diazabicyclo[3.1.1]heptan-3-yl)-7-(thiazol-2-yl) benzo[d]oxazole-4-sulfonamide] | > 7.00 |  | 
21 | O=S1(=O)CCN(c2ccc(-c3nccs3)c3oc(N4CC5CC(C4)N5)nc23)CC1 [Example 398, 4-(2-(3,6-diazabicyclo[3.1.1]heptan-3-yl)-7-(thiazol-2-yl)benzo[d]oxazol-4-yl)thiomorpholine 1,1-dioxide] | > 7.00 |  | 
22 | CCC(F)(F)Oc1ccc(-c2nccs2)c2oc(N3CC4CC(C3)N4)nc12 [Example 402, 2-(3,6-diazabicyclo [3.1.1]heptan-3-yl)-4-(1,1-difluoro-propoxy)-7-(thiazol-2-yl) benzo[d] oxazole] | > 7.00 |  | 
23 | FC(F)(Oc1ccc(-c2nccs2)c2oc(N3CC4CC(C3)N4)nc12)c1nc2ccccc2o1 [Example 403, 4-(benzo [d]oxazol-2-yldifluoro-methoxy)-2-(3,6-diazabicyclo [3.1.1]heptan-3-yl)-7-(thiazol-2-yl)benzo[d] oxazole] | > 7.00 |  | 
24 | FC(F)(/C=C/c1cccnc1)Oc1ccc(-c2nccs2)c2oc(N3CC4CC(C3)N4)nc12 [Example 406, (E)-2-(3,6-diazabicyclo [3.1.1]heptan-3-yl)-4-((1,1-difluoro-3-(pyridin-3-yl)allyl)oxy)-7-(thiazol-2-yl) benzo[d] oxazole] | > 7.00 |  | 
25 | CN(CCO)C(=O)C(F)(F)Oc1ccc(-c2nccs2)c2oc(N3CC4CC(C3)N4)nc12 [Example 407, 2-((2-(3,6-diazabicyclo [3.1.1]heptan-3-yl)-7-(thiazol-2-yl)benzo[d]oxazol-4-yl)oxy)-2,2-difluoro-N-(2-hydroxy-ethyl)-N-methyl-acetamide] | > 7.00 |  | 
26 | CN(C)C(=O)C(F)(F)Oc1ccc(-c2nccs2)c2oc(N3CC4CC(C3)N4)nc12 [Example 408, 2-((2-(3,6-diazabicyclo [3.1.1]heptan-3-yl)-7-(thiazol-2-yl)benzo[d]oxazol-4-yl)oxy)-2,2-difluoro-N,N-dimethyl-acetamide] | > 7.00 |  | 
27 | c1csc(-c2ccc(C3CCC3)c3nc(N4CC5CC(C4)N5)oc23)n1 [Example 414, 2-(3,6-diazabicyclo[3.1.1]heptan-3-yl)-4-cyclobutyl-7-(thiazol-2-yl)benzo[d]oxazole] | > 7.00 |  | 
28 | c1csc(-c2ccc(N3CCCC3)c3nc(N4CC5CC(C4)N5)oc23)n1 [Example 415, 2-(3,6-diazabicyclo[3.1.1]heptan-3-yl)-4-(pyrrolidin-1-yl)-7-(thiazol-2-yl)benzo [d]oxazole] | > 7.00 |  | 
